Measured values reported in patent publication US20080050819A1, “Constructs for Marker Excision Based on Dual-Function Selection Marker” (BASF Plant Science GmbH, priority 2004, published 2008).
“Also recorded” adds a separate entry of the source.

Tests used:
[1] = tested on: dao1 transgenic A. thaliana; assay: Growth of dao1 (DAAO) transgenic A. thaliana on D-amino acid media; assay type: in vivo, Arabidopsis thaliana
Description: (§1) FIG. 4 D-amino acid dose responses of dao1 transgenic and wild-type A. thaliana. • (a-d) Growth of dao1 transgenic line 3:7 (white), 10:7 (light gray), 13:4 (gray) and wild-type (black) plants, in fresh weight per plant, on media containing various concentrations of D-serine, D-alanine, D-isoleucine and D-valine in half-strength MS with 0.5% (wt/vol) sucrose and 0.8% (wt/vol) agar. Different concentration ranges were used for different D-amino acids. The plants were grown for 10 d after germination under 16 h photoperiods at 24° C.; n=10±s.e.m., except for plants grown on D-isoleucine, where smaller Petri dishes were used, (n=6±s.e.m.). • (e-l) Photographs of dao1 transgenic line 10:7 (e-h) and wild-type plants (i-l), grown for 10 d on the highest concentrations of the D-amino acid shown in the respective graphs above. All pictures have the same magnification. FW, fresh weight.
Therefore, plants containing the construct were tested as described above on two sets of media, one containing D-isoleucine and the other containing D-valine at various concentrations, to assess whether DAAO could also be used as a counter-selection marker. Unambiguous counter-selection selection was achieved when seeds were sown on either D-isoleucine or D-valine at concentrations greater than 10 mM (FIG. 4 c,d).

DAAO = target: T1, DAAO (Rhodotorula toruloides, UniProt P80324); assay: DAAO incubation of cell-free plant extracts, keto acid production by HPLC; assay type: biochemical, Rhodotorula gracilis; conditions: cell-free extracts from dao1 transgenic line 10:7
T1 construct: expressed in transfected cells; host or cells: Arabidopsis thaliana (Col-0) dao1 transgenic line 10:7, stably transformed with pPCV702:dao1 (CaMV 35S); crude soluble protein extract
T1 sequence (P80324 25-368): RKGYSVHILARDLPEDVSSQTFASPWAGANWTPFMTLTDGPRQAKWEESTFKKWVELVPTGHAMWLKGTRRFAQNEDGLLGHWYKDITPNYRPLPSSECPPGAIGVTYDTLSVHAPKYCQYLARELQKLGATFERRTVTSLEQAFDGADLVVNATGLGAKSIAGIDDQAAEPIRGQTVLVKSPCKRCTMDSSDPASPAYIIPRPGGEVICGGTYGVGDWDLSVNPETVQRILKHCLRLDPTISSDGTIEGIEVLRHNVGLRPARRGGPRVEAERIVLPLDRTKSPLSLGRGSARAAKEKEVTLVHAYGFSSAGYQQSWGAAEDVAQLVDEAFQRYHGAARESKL
Description: Soluble proteins were extracted by shaking 0.1 g samples of plant material that had been finely pulverized in a 1.5 ml Eppendorf tube in 1 ml of 0.1 M potassium phosphate buffer, pH 8. DAAO activity was then assayed as follows. Reaction mixtures were pre-pared containing 2,120 μl of 0.1 M potassium phosphate buffer, pH 8, 80 μl of crude protein extract and 100 μl of 0.3 M D-alanine. The samples were incubated for 2 h at 30° C. The enzyme activity was then assessed, by measuring the increase in absorbance at 220 nm (E=1.090 M^−1 cm^−1) associated with the conversion of D-alanine to pyruvate, after transferring the test tubes to boiling water for 10 min to stop the reaction. In control reactions, D-alanine was added immediately before boiling. One unit of DAAO activity is defined as the turnover of one micromole of substrate per minute, and activity was expressed per gram plant biomass (fresh weight). The breakdown of D-isoleucine and D-valine in DAAO incubations, and the associated production of 3-methyl-2-oxopentanoate and 3-methyl-2-oxobutanoate, were analyzed by high-performance liquid chromatography. In other respects the reactions were carried out as described above.

[2] = tested on: wild-type Arabidopsis thaliana; assay: Growth of wild-type A. thaliana on D-amino acid media; assay type: in vivo; conditions: for effect on wild-type plants: concentration not stated / various concentrations; for effect on growth of wild-type plantlets: FIG. 3, half-concentrated MS medium supplemented at 3 mM (Panel A) or 30 mM (Panel B)
Description: FIG. 3 Effect of various D-amino acids on plant growth. • Wild type Arabidopsis thaliana plantlets were grown on half-concentrated Murashige-Skoog medium (0.5% (wt/vol) sucrose, 0.8% (wt/vol) agar) supplemented with the indicated D-amino acid at either 3 mM (Panel A) or 30 mM (Panel B).
as §1

[3] = tested on: wild-type Arabidopsis thaliana; assay: as above; assay type: in vivo; conditions: 30 mM, FIG. 2
[4] = tested on: wild-type plants (A. thaliana); assay: Toxicity of keto acids to wild-type plants on half strength MS agar plates; assay type: in vivo, Arabidopsis thaliana; conditions: for effect on growth of A. thaliana: in vivo
Description: (§2) To evaluate the toxic action of 3-methyl-2-oxopentanoate and 3-methyl-2-oxobutanoate, wild-type plants were sown on two sets of half strength MS agar plates, each containing one of the compounds in a range of concentrations (0.01-10 mM). […] For 3-methyl-2-oxobutanoate, 5 mM was required for complete inhibition. Further, several attempts were made to probe the nature of D-serine's toxicity.

wildtype A. thaliana = assay: Attempted rescue of wild-type A. thaliana grown on lethal D-serine with potential inhibitors of D-serine toxicity; assay type: in vivo, Arabidopsis thaliana; conditions: lethal concentrations of D-serine, added separately and in combinations, 0.001-50 μg ml-1
Description: as §2

DAAO transgenic plants = assay: Germination of DAAO transgenic plants on D-Asn (cytosolic and peroxisomal DAAO); assay type: in vivo; conditions: 30 mM; cytosolic and peroxisomal DAAO constructs vs wild-type
wild-type seedlings = assay: Spray application of D-amino acids on soil-grown wild-type seedlings; assay type: in vivo, Arabidopsis thaliana; conditions: one-week-old seedlings, 50 mM, sprayed on three consecutive days
Description: (§3) FIG. 5: Selection of primary transformants with the DAAO marker. • (a-c) DAAO T1 seedlings on media containing 3 mM D-alanine (a), 3 mM D-serine (b) and 50 μg ml-1 kanamycin (c). Seeds were surface-sterilized and sown on half-strength MS plates with 0.5% (wt/vol) sucrose, 0.8% (wt/vol) agar and the respective selective compound, then grown for 5 d after germination under 16 h photoperiods at 24° C. • (d) DAAO transgenic plants grown on soil photographed after selection by spraying with (1) D-alanine and (2) D-serine, and wild-type plants sprayed with (3) D-alanine and (4) D-serine. Eight seeds per plot and treatment were sown on soil, and grown for 7 d after germination before applying the selective treatment, which consisted of spraying with aqueous 50 mM solutions of D-alanine or D-serine with 0.05% Tween 80 on three consecutive days.
(§4) FIG.: 11 D-amino acids are applicable by spraying procedure DAAO transgenic plants grown on soil photographed after selection by spraying with (1) D-alanine and (2) D-serine, and wild-type plants sprayed with (3) D-alanine and (4) D-serine. Eight seeds per plot and treatment were sown on soil, and grown for 7 d after germination before applying the selective treatment, which consisted of spraying with aqueous 50 mM solutions of D-alanine or D-serine with 0.05% Tween 80 on three consecutive days.

[5] = tested on: T1 seeds of transgenic Arabidopsis plants; assay: Selection of DAAO (35S:dao1 / pNos:nptII) T1 seeds on selective media; assay type: in vivo, Arabidopsis thaliana; conditions: FIG. 4a
Excerpt: Flowering A. thaliana plants were then transformed by the floral dip method (Clough S J & Bent A F (1998) Plant J. 16, 735-743 (1998) with the transgenic Agrobacterium tumefaciens strain carrying the vector described above by dipping for 10-20 seconds into the Agrobacterium solution. Afterwards the plants were kept in the greenhouse until seeds could be harvested. Transgenic seeds were selected by plating surface sterilized seeds on growth medium A (4.4 g/L MS salts [Sigma-Aldrich], 0.5 g/L MES [Duchefa]; 8 g/L Plant Agar [Duchefa]) supplemented with 50 mg/L kanamycin for plants carrying the nptII resistance marker, or 0.3 to 30 mM D-amino acids (as described below) for plants comprising the dual-function marker of the invention. Surviving plants were transferred to soil and grown in the greenhouse.
T1 seeds of transgenic Arabidopsis plants were surface-sterilized and sown in Petri plates that were sealed with gas-permeable tape. The growth medium was half strength MS19 with 0.5% (wt/vol) sucrose and 0.8% (wt/vol) agar, plus 3 mM D-alanine, 3 mM D-serine or 50 μg/ml kanamycin as the selective agent. […] To evaluate the selection efficiency on different substrates, 2,074, 1,914 and 1,810 T1 seeds were sown on D-alanine-, D-serine- and kanamycin-selective plates, respectively, and the number of surviving seedlings was counted (44, 32 and 43, respectively). […]

[6] = tested on: DAAO transgenic seedlings; assay: Spray application of D-amino acids on soil-grown DAAO transgenic seedlings; assay type: in vivo, Arabidopsis thaliana; conditions: 50 mM spray
Description: as §3, §4

[7] = tested on: poplar, tobacco, barley, maize, tomato and spruce; assay: Susceptibility of other plant species to D-serine; assay type: in vivo; conditions: concentrations similar to those toxic for A. thaliana; FIG. 6+7
[8] = concentration not stated / various concentrations
[9] = wild-type plants, half strength MS agar, tested range 0.01-10 mM

Compound: CC(C)[C@@H](N)C(=O)O [D-valine]
- effect on transgenic (DAAO) plants [1, 8]: strong negative influence; also recorded: inhibit growth
- increase in production of the keto acid (3-methyl-2-oxopentanoate / 3-methyl-2-oxobutanoate) compared to extracts of wild-type plants (DAAO): 7 fold
- effect on wild-type plants [2]: not toxic; also recorded: minor effects; also recorded: not the wild-type plants; also recorded: moderately negative effect

Compound: CC[C@@H](C)[C@@H](N)C(=O)O [D-isoleucine]
- effect on transgenic (DAAO) plants ([1]; 30 mM): toxic effect
- effect on transgenic (DAAO) plants [1, 8]: strong negative influence; also recorded: inhibit growth; also recorded: effectively killed
- increase in production of the keto acid (3-methyl-2-oxopentanoate / 3-methyl-2-oxobutanoate) compared to extracts of wild-type plants (DAAO): 15 fold
- effect on wild-type plantlets [3]: no severe damage
- effect on growth of wild-type plantlets [2]: no significant effects
- effect on wild-type plants [2]: not toxic; also recorded: minor effects; also recorded: not the wild-type plants; also recorded: no sign of toxicity

Compound: CCC(C)C(=O)C(=O)O (stereo not drawn) [3-methyl-2-oxopentanoate]
- effect on growth of A. thaliana [4]: impaired growth
- concentration at which plants were slightly affected [4, 9]: 0.1 mM
- concentration giving total (complete) growth inhibition [4, 9]: 1 mM

Compound: CC[C@H](C)[C@H](N)C(=O)O [L-isoleucine]
- effect on wild-type plants [2]: negative effects

Compound: CC(C)C[C@H](N)C(=O)O [leucine]
- rescue (mitigation) of D-serine toxicity (wildtype A. thaliana): without any success

Compound: N[C@@H](CO)C(=O)O [L-serine]
- rescue (mitigation) of D-serine toxicity (wildtype A. thaliana): without any success

Compound: CC(C)(CO)[C@@H](O)C(=O)NCCC(=O)O [pantothenic acid]
- rescue (mitigation) of D-serine toxicity (wildtype A. thaliana): could not be mitigated

Compound: calcium-pantothenate
- rescue (mitigation) of D-serine toxicity (wildtype A. thaliana): without any success

Compound: NCCC(=O)O [β-alanine]
- rescue (mitigation) of D-serine toxicity (wildtype A. thaliana): without any success
- rescue (mitigation) of D-serine toxicity (wildtype A. thaliana; listed as â-alanine): could not be mitigated

Compound: CC(C)C(=O)C(=O)O [3-methyl-2-oxobutanoate]
- effect on growth of A. thaliana [4]: impaired growth
- concentration giving total (complete) growth inhibition [4, 9]: 5 mM

Compound: NC(=O)C[C@@H](N)C(=O)O [D-Asn, D-asparagine]
- inhibition of germination of DAAO transgenic plants (DAAO transgenic plants): inhibited significantly more than the wild-type

Compound: C[C@@H](O)[C@H](N)C(=O)O [threonine]
- rescue (mitigation) of D-serine toxicity (wildtype A. thaliana): without any success

Compound: N[C@H](CO)C(=O)O [D-serine]
- effect of sprayed application on wild-type seedlings (wild-type seedlings): effectively killed
- concentration at which efficient selection was achieved [5]: lower than 1 mM
- response of transgenic seedlings to foliar application [6]: resistant
- effect on transgenic (DAAO) plants ([1]; 3 mM): slightly inhibited the growth
- effect on transgenic (DAAO) plants ([1]; 30 mM): significant growth inhibition
- effect on transgenic (DAAO) plants [1, 8]: detoxify; also recorded: developed normally
- toxicity to other plant species [7]: toxic effects; also recorded: susceptible
- effect on growth of wild-type plantlets [2]: severe phytotoxic effects
- effect on wild-type plants [2]: inhibited even at quite low concentrations; also recorded: inhibited growth

Compound: C[C@@H](N)C(=O)O [D-alanine]
- effect of sprayed application on wild-type seedlings (wild-type seedlings): effectively killed
- response of transgenic seedlings to foliar application [6]: resistant
- effect on transgenic (DAAO) plants ([1]; 30 mM): no severe damage; also recorded: no negative effect
- effect on transgenic (DAAO) plants [1, 8]: detoxify; also recorded: developed normally
- effect on wild-type plantlets [3]: toxic effect
- effect on growth of wild-type plantlets [2]: severe phytotoxic effects
- effect on wild-type plants [2]: inhibited even at quite low concentrations; also recorded: inhibited growth
